From US9133207B2, “Tetrandrine derivatives with substituted 5-carbon, preparation method and use thereof” (Hangzhou Bensheng Pharmaceutical Co., Ltd., priority 2011, dated 2015)
In brackets after ≈: the same amount, converted by molar mass.

Assays:
PC-3 (prostate cancer) = experiment: Solid tumor cell growth inhibition, MTT, 72 h (Example 7); format: cell-based, human; details: Homo sapiens; 72 h, MTT, PC-3
Summary of the method: (§1)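 Cells (4000/well) were seeded in DMEM high glucose with 10% FBS and grown 24 h at 37 °C, 5% CO2, then exposed to tetrandrine derivatives at different concentrations for 72 h. Viable cells were measured by MTT, with viability expressed as % of untreated control (100%).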

MG63 (osteosarcoma) = experiment: as above; format: cell-based, human; details: Homo sapiens; 72 h, MTT, MG-63
Summary of the method: as §1

[1] = system: CaES-17 (esophageal cancer cell); experiment: as above; format: cell-based, human; details: Homo sapiens, CaEs17; 72 h, MTT, CAES-17
Summary of the method: as §1

[2] = system: Hep-2 (laryngeal carcinoma); experiment: as above; format: cell-based, human; details: Homo sapiens; 72 h, MTT, Hep 2
Summary of the method: as §1

[3] = system: PANC-1 (pancreatic cancer); experiment: as above; format: cell-based, human; details: Homo sapiens; 72 h, MTT, PANC-1
Summary of the method: as §1

[4] = system: Becap37 (human breast cancer cell); experiment: as above; format: cell-based; details: Homo sapiens; 72 h, MTT, Becap-37
Summary of the method: as §1

[5] = system: SK-OV-3 (ovarian cancer cell); experiment: as above; format: cell-based; details: Homo sapiens
Summary of the method: as §1

[6] = system: Hela (human cervical cancer cell); experiment: as above; format: cell-based; details: Homo sapiens; 72 h, MTT, Hela
Summary of the method: as §1

[7] = system: RKO (human colon adenocarcinoma cell); experiment: as above; format: cell-based; details: Homo sapiens; 72 h, MTT, RKO
Summary of the method: as §1

[8] = system: MGC 803 (human gastric cancer cell); experiment: as above; format: cell-based; details: Homo sapiens
Summary of the method: as §1

A549 (human lung cancer) = experiment: as above; format: cell-based; details: Homo sapiens; 72 h, MTT, A549
Summary of the method: as §1

[9] = system: CNE (nasopharyngeal carcinoma cell); experiment: as above; format: cell-based; details: Homo sapiens
Summary of the method: as §1

[10] = system: Huh7 (human liver cancer cell); experiment: as above; format: cell-based; details: Homo sapiens; 72 h, MTT, Huh-7
Summary of the method: as §1

[11] = system: U87 MG (malignant glioma cell); experiment: as above; format: cell-based; details: Homo sapiens, U-87 MG
Summary of the method: as §1

[12] = system: Kasumi-1 (acute myeloid leukemia M2 type, AML-M2); experiment: Leukemia cell growth inhibition, MTT, 72 h (Example 5); format: cell-based, human; details: Homo sapiens, Kasumi 1
Summary of the method: (§2)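 6000 cells per well were seeded in RPMI 1640 with 10% FBS, exposed to graded concentrations of 5-substituted tetrandrine derivatives, and held 72 hours at 37° C, 5% CO2. Viable cell concentration was then measured by MTT.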

[13] = system: Jurkat (acute lymphoblastic leukemia, ALL); experiment: as above; format: cell-based, human; details: for IC50 / IC90: Homo sapiens, Jurkat, 72 h, MTT
Summary of the method: as §2

[14] = system: NB4 (acute promyelocytic leukemia, AML); experiment: as above; format: cell-based, human; details: Homo sapiens; 72 h, MTT
Summary of the method: as §2

[15] = system: K562/adr (drug-resistant, chronic myeloid leukemia, CML); experiment: as above; format: cell-based, human; details: Homo sapiens, K562/Adr; 72 h, MTT
Summary of the method: as §2

[16] = system: H9 (acute lymphoblastic leukemia, ALL); experiment: as above; format: cell-based, human; details: Homo sapiens; 72 h, MTT
Summary of the method: as §2

[17] = system: RPMI8226 (multiple myeloma); experiment: Multiple myeloma cell growth inhibition, MTT, 72 h (Example 6); format: cell-based, human; details: Homo sapiens, RPMI-8226; 72 h, MTT, RPMI8226
Summary of the method: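 RPMI8226 cells (6000 per well) in RPMI 1640 with 10% FBS were exposed to a range of tetrandrine derivative concentrations for 72 h at 37 °C under 5% CO2. Viable cell concentration was then measured by MTT.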

`COc1ccc2cc1Oc1ccc(cc1)C[C@H]1c3cc(c(OC)cc3CCN1C)Oc1c(OC)c(OC)c(CN3CCSCC3)c3c1[C@H](C2)N(C)CC3` [BS-TE-328] showed an IC50 (PC-3 (prostate cancer)) of 3.07 µg/mL (≈ 4.16 µM), an IC90 (PC-3 (prostate cancer)) of 4.98 µg/mL (≈ 6.75 µM) and an IC50 (MG63 (osteosarcoma)) of 2.1 µg/mL (≈ 2.85 µM). It also gave an IC90 (MG63 (osteosarcoma)) of 3.9 µg/mL (≈ 5.28 µM), an IC50 [1] of 3.13 µg/mL (≈ 4.24 µM) and an IC90 [1] of 12.2 µg/mL (≈ 16.5 µM). For the same compound, the IC50 [2] was 9.63 µg/mL (≈ 13 µM), the IC90 [2] was 15.9 µg/mL (≈ 21.5 µM) and the IC50 [3] was 2.99 µg/mL (≈ 4.05 µM). It also gave an IC90 [3] of 7.15 µg/mL (≈ 9.69 µM), an IC50 [4] of 2 µg/mL (≈ 2.71 µM) and an IC90 [4] of 4 µg/mL (≈ 5.42 µM). It also gave an IC50 [5] of 6.8 µg/mL (≈ 9.21 µM), an IC90 [5] greater than 16 µg/mL and an IC50 [6] of 2.49 µg/mL (≈ 3.37 µM). The IC90 [6] was 4.91 µg/mL (≈ 6.65 µM), the IC50 [7] was 1.76 µg/mL (≈ 2.38 µM) and the IC90 [7] was 3 µg/mL (≈ 4.07 µM). The IC50 [8] was 1.68 µg/mL (≈ 2.28 µM), the IC90 [8] was 4 µg/mL (≈ 5.42 µM) and the IC50 (A549 (human lung cancer)) was 3.7 µg/mL (≈ 5.01 µM). It also gave an IC90 (A549 (human lung cancer)) of 9.9 µg/mL (≈ 13.4 µM), an IC50 [9] of 6.02 µg/mL (≈ 8.16 µM) and an IC90 [9] greater than 16 µg/mL. It also gave an IC50 [10] of 1.52 µg/mL (≈ 2.06 µM), an IC90 [10] of 3.7 µg/mL (≈ 5.01 µM) and an IC50 [11] of 1.44 µg/mL (≈ 1.95 µM). It also gave an IC90 [11] of 5.39 µg/mL (≈ 7.3 µM), an IC50 [12] of 0.84 µg/mL (≈ 1.14 µM) and an IC90 [12] of 3.76 µg/mL (≈ 5.1 µM). For the same compound, the IC50 [13] was 2.09 µg/mL (≈ 2.83 µM), the IC90 [13] was 8 µg/mL (≈ 10.8 µM) and the IC50 [14] was 1.8 µg/mL (≈ 2.44 µM). The IC90 [14] was 4.4 µg/mL (≈ 5.96 µM), the IC50 [15] was 1.46 µg/mL (≈ 1.98 µM) and the IC90 [15] was 5.12 µg/mL (≈ 6.94 µM). The IC50 [16] was 1.54 µg/mL (≈ 2.09 µM), the IC90 [16] was 3.15 µg/mL (≈ 4.27 µM) and the IC50 [17] was 0.15 µg/mL (≈ 0.203 µM). It also gave an IC90 [17] of 0.96 µg/mL (≈ 1.3 µM).
For `COc1ccc2cc1Oc1ccc(cc1)C[C@H]1c3cc(c(OC)cc3CCN1C)Oc1c(OC)c(OC)c(CN3CCCCC3)c3c1[C@H](C2)N(C)CC3` [BS-TE-355], the IC50 (PC-3 (prostate cancer)) was 1.83 µg/mL (≈ 2.54 µM), the IC90 (PC-3 (prostate cancer)) was 3.65 µg/mL (≈ 5.07 µM) and the IC50 (MG63 (osteosarcoma)) was 0.77 µg/mL (≈ 1.07 µM). For the same compound, the IC90 (MG63 (osteosarcoma)) was 1.27 µg/mL (≈ 1.76 µM), the IC50 [1] was 1.42 µg/mL (≈ 1.97 µM) and the IC90 [1] was 11 µg/mL (≈ 15.3 µM). The IC50 [2] was 3.22 µg/mL (≈ 4.47 µM), the IC90 [2] was 8.45 µg/mL (≈ 11.7 µM) and the IC50 [3] was 2.27 µg/mL (≈ 3.15 µM). For the same compound, the IC90 [3] was 8.22 µg/mL (≈ 11.4 µM), the IC50 [4] was 0.76 µg/mL (≈ 1.06 µM) and the IC90 [4] was 2.69 µg/mL (≈ 3.74 µM). For the same compound, the IC50 [5] was 3.5 µg/mL (≈ 4.86 µM), the IC90 [5] was greater than 16 µg/mL and the IC50 [6] was 2 µg/mL (≈ 2.78 µM). For the same compound, the IC90 [6] was 6.92 µg/mL (≈ 9.61 µM), the IC50 [7] was 0.25 µg/mL (≈ 0.347 µM) and the IC90 [7] was 1.18 µg/mL (≈ 1.64 µM). The IC50 [8] was 0.92 µg/mL (≈ 1.28 µM), the IC90 [8] was 12 µg/mL (≈ 16.7 µM) and the IC50 (A549 (human lung cancer)) was 3.4 µg/mL (≈ 4.72 µM). It also gave an IC90 (A549 (human lung cancer)) of 14.9 µg/mL (≈ 20.7 µM), an IC50 [9] of 1.17 µg/mL (≈ 1.63 µM) and an IC90 [9] of 3.64 µg/mL (≈ 5.06 µM). The IC50 [10] was 1.28 µg/mL (≈ 1.78 µM), the IC90 [10] was 2.45 µg/mL (≈ 3.4 µM) and the IC50 [11] was 0.37 µg/mL (≈ 0.514 µM). The IC90 [11] was 1.16 µg/mL (≈ 1.61 µM), the IC50 [12] was 0.46 µg/mL (≈ 0.639 µM) and the IC90 [12] was 2.55 µg/mL (≈ 3.54 µM). The IC50 [13] was 0.48 µg/mL (≈ 0.667 µM), the IC90 [13] was 4.52 µg/mL (≈ 6.28 µM) and the “anti-Jurkat activity increase over tetrandrine” value ([13]; compared with tetrandrine) was roughly 4 fold. The IC50 [14] was 0.4 µg/mL (≈ 0.556 µM), the IC90 [14] was 1.4 µg/mL (≈ 1.94 µM) and the IC50 [15] was 0.44 µg/mL (≈ 0.611 µM). The IC90 [15] was 8.5 µg/mL (≈ 11.8 µM), the IC50 [16] was 0.63 µg/mL (≈ 0.875 µM) and the IC90 [16] was 1.96 µg/mL (≈ 2.72 µM). For the same compound, the IC50 [17] was 0.04 µg/mL (≈ 0.0556 µM) and the IC90 [17] was 3.08 µg/mL (≈ 4.28 µM).
